Source: publication PMC5290066 (Molecular and Cellular Biochemistry, 2016)
“Also recorded” adds a separate entry of the source. Like-named read-outs stand apart in the source and are kept apart here.

Key:
[1] = molecular target: T1, human Rio1 (Homo sapiens, UniProt Q9BRS2); assay: Rio1 autophosphorylation assay ([γ-32P]ATP); type: biochemical; details: 0.5 µM ATP; for IC50: 37 °C, 15 min, read-out: IC50 (µM) ± SD Rio1; for Ki: read-out: Ki (µM) ± SD Rio1
T1 construct: Human recombinant kinase Rio1 containing residues 134–494 was expressed and purified as previously reported; made in house
T1 sequence (Q9BRS2 134-494): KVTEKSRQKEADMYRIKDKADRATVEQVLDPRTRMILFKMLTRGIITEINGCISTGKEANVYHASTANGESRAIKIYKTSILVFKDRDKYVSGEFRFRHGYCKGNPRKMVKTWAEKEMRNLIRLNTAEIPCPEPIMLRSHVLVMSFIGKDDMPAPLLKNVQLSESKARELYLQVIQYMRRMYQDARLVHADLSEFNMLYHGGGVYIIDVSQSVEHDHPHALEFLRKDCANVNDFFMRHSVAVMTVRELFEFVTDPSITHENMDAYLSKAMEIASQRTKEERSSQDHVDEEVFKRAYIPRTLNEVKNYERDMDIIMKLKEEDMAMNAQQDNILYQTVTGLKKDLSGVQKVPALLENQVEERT
Experimental: Recombinant human protein kinase GST-CK2α was produced in bacteria and purified as described elsewhere. The plasmid carrying the gene encoding human protein kinase Rio1 (residues […]) was kindly gifted by Professor Nicole LaRonde—LeBlanc (University of Maryland, USA). Human recombinant kinase Rio1 containing residues 134–494 was expressed and purified as previously reported with a few modifications.
In order to determine the autophosphorylation of human Rio1, the enzyme was incubated at 37 °C for 15 min in 50 μl samples each containing 1 pmol of human recombinant Rio1 and an appropriate concentration of tested compound (0.01–50 µM). The reaction buffer contained 0.5 µM ATP, [γ-^32P]ATP (specific radioactivity 300–1000 cpm/pmol), 50 mM NaCl, 10 mM Mg^2+, 50 mM Tris–HCl pH 7.5, and 6 mM 2-mercaptoethanol.
(§1) The phosphorylation was terminated by addition of SDS/PAGE sample buffer, and proteins were resolved by electrophoresis, followed by Coomassie Brilliant Blue staining. The gels were dried and ^32P-labelled bands of P2B and Rio1 were excised from the gel, and radioactivity was determined in a scintillation counter (MicroBeta, Perkin Elmer) by Cerenkov counting.
(§2) IC50, K i, K m, and V max values were calculated using GraphPad Prism (version 4.0) software.

[2] = molecular target: T2, hCK2α (Homo sapiens, UniProt P68400); assay: CK2 phosphorylation assay (P2B substrate, [γ-32P]ATP); type: biochemical; design: GST (N); made in house; host or cells: bacteria; details: for IC50 / Ki: 20 µM ATP, P2B protein substrate; for IC50: 37 °C, 5 min, read-out: IC50 (µM) ± SD CK2; for Ki: read-out: Ki (µM) ± SD CK2; for inhibition of CK2 stronger than that of Rio1 (fold): CK2 versus Rio1
Experimental: Recombinant human protein kinase GST-CK2α was produced in bacteria and purified as described elsewhere.
The reaction buffer contained 20 µM [γ-^32P]ATP (specific radioactivity 300–1000 cpm/pmol), 15 mM Mg^2+, 20 mM Tris–HCl pH 7.5, and 6 mM 2-mercaptoethanol.
as §1, §2

[3] = molecular target: T1, human Rio1; details: cited from earlier work
[4] = molecular target: T3, hRio1 (Homo sapiens, UniProt Q9BRS2); details: cited from earlier work
T3 construct: Human recombinant kinase Rio1 containing residues 134–494 was expressed and purified as previously reported; made in house
T3 sequence (Q9BRS2 134-494): T1 sequence (Q9BRS2 134-494)

[5] = molecular target: T1, human Rio1; assay: Rio1 autophosphorylation assay ([γ-32P]ATP); type: biochemical
[6] = molecular target: T3, hRio1; assay: Thermofluor (thermal shift) assay, Rio1; type: binding; details: 100 µM TIBI
Experimental: (§3) The procedure was performed according to the protocol described elsewhere with a few modifications. 10-µl reactions containing 50 mM NaCl, 10 mM Mg^2+, 50 mM Tris–HCl pH 7.5, 1 mg/ml hRio1 or hCK2α, and 100 µM TIBI or 5% DMSO (control) were incubated at 4 °C for 30 min. 10 µl of the SYPRO Orange dye was then added to the reactions. The samples were heated from 4 to 98 °C at a rate of 0.2° per second using a thermal cycler (CFX 1000, Bio-Rad). The changes in fluorescence intensity were measured as the temperature increased. Melting temperatures (T m) of hRio1 and CK2 in the presence and absence of TIBI were calculated using Bio-Rad software. The experiment was performed in duplicate.

[7] = molecular target: T3, hRio1; assay: Size-exclusion chromatography of Rio1 (oligomeric state); details: 100 µM TIBI, 2 mg/ml hRio1
Experimental: The glass column (200/10 mm) filled with the Sephadex G-200 medium (GE Healthcare) was equilibrated with a buffer containing 10 mM Tris, pH 7.5, 150 mM NaCl, and 6 mM β-mercaptoethanol. In order to calibrate the column, four proteins, namely β-amylase (200 kDa), alcohol dehydrogenase (150 kDa), bovine serum albumin (67 kDa), and ovalbumin (43 kDa), were separately loaded onto the column. 100-µl samples containing 2 mg/ml hRio1 diluted in the equilibration buffer in the presence or absence (control) of 100 µM TIBI were then loaded onto the column. The chromatography was performed at a flow rate 0.2 ml/min using the FPLC system AKTA Purifier 10 (GE Healthcare), and runs were monitored by OD280.

[8] = tested on: promyelocytic leukemia cell line HL-60; design: method as in PMID 21229880; details: cited from earlier work
[9] = molecular target: T2, hCK2α; assay: Thermofluor (thermal shift) assay, CK2α; type: binding; details: 100 µM TIBI
Experimental: as §3, with “The samples were heated from 4 to 98 °C at a rate of 0.2° per second using a thermal cycler (CFX 1000, Bio-Rad).” left out

[10] = molecular target: T1, human Rio1; assay: Steady-state kinetics of Rio1 autophosphorylation (Km for ATP, Vmax) with TIBI; type: biochemical
Experimental: Additionally, the same protocol was followed with the addition of TIBI to the reaction mixture at a concentration of 0.01, 0.05, and 0.1 µM.
as §1, §2

T2 sequence (P68400 whole entry): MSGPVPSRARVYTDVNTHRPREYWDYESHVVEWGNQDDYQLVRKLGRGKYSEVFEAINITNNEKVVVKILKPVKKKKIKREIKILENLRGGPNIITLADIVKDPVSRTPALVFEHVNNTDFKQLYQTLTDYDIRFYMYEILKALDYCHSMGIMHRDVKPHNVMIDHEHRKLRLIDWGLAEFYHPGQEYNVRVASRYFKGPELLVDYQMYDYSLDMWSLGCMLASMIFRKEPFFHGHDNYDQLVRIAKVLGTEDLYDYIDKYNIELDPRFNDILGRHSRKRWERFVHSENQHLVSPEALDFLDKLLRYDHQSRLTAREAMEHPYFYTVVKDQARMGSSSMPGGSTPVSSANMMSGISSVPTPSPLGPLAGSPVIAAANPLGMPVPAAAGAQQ

## CC(CC(=O)O)Sc1nc2c(Br)c(Br)c(Br)c(Br)c2[nH]1 (stereo not shown) [TBSB, 3-(4,5,6,7-tetrabromobenzimidazole-2-ylsulfanyl)butanoic acid]
[1]
  IC50: 0.65 ± 0.03 µM
  Ki: 0.367 ± 0.012 µM
[2]
  IC50: 0.33 ± 0.013 µM
  Ki: 0.141 ± 0.005 µM
  inhibition of CK2 stronger than that of Rio1 (fold): twofold stronger

## Brc1c(I)c(Br)c2nc[nH]c2c1I [K95, 4,6-dibromo-5,7-diiodobenzimidazole]
[1]
  IC50: 0.29 ± 0.009 µM
  Ki: 0.164 ± 0.007 µM
[2]
  IC50: 0.3 ± 0.009 µM
  Ki: 0.128 ± 0.005 µM

## Brc1c(Br)c(Br)c2[nH]cnc2c1Br [TBI, 4,5,6,7-tetrabromobenzimidazole]
[1]
  IC50: 0.33 ± 0.007 µM
  Ki: 0.186 ± 0.009 µM

## CN(C)c1nc2c(Br)c(Br)c(Br)c(Br)c2[nH]1 [DMAT, 2-dimethylamino-4,5,6,7-tetrabromobenzimidazole, reference compound]
[1]
  IC50: 0.19 ± 0.009 µM
  Ki: 0.1 µM

## N#Cc1cn([C@@H]2O[C@H](CO)[C@@H](O)[C@H]2O)c2ncnc(N)c12 [Toyocamycin, toyocamycin, reference compound]
[3]
  mode of inhibition of Rio1: mixed inhibition
[1]
  IC50: 3.66 ± 0.09 µM
  Ki: 2.07 ± 0.07 µM
[4]
  shift in Tm of human Rio1 bound to toyocamycin: 12.1 °C
[2]
  IC50: 54.8 ± 1.9 µM
  Ki: 23.5 ± 0.8 µM

## Ic1c(I)c(I)c2[nH]cnc2c1I [TIBI, 4,5,6,7-tetraiodobenzimidazole]
[5]; IC50 against Rio1 at 0.01 µM ATP, 0.01 µM ATP
  IC50: 0.046 µM
[5]; IC50 against Rio1 at 0.1 µM ATP, 0.1 µM ATP
  IC50: 0.061 µM
[5]; IC50 against Rio1 at 1 µM ATP, 1 µM ATP
  IC50: 0.101 µM
[6]; bound versus unbound, read-out: shift in melting temperature (Tm) of Rio1
  ΔTm at 100 µM: 10 °C
[6]; unbound enzyme 58.8 °C
  melting temperature (Tm) of bound Rio1: 68.8 °C
[1]
  IC50: 0.09 ± 0.005 µM
  Ki: 0.05 ± 0.002 µM
[7]
  effect on oligomeric state (monomer–tetramer equilibrium) of Rio1: does not influence the oligomeric state; also recorded: did not observe any changes in the monomer–tetramer equilibrium
[8]
  proapoptotic activity: proapoptotic activity
[9]; bound versus unbound, read-out: shift in melting temperature (Tm) of CK2α
  ΔTm at 100 µM: 20 °C
[9]; unbound enzyme 58.8 °C
  melting temperature (Tm) of TIBI-bound CK2α: 78.8 °C
[10]
  mode of inhibition of Rio1: strict ATP-competitive inhibitors
[10]; no shift with increasing TIBI concentration
  Vmax of Rio1 in the presence of TIBI: 0.09 pmol/s
[2]
  IC50: 0.083 ± 0.003 µM
  Ki: 0.035 ± 0.001 µM

## CC(CC(=O)O)Cn1c(N(C)C)nc2c(Br)c(Br)c(Br)c(Br)c21 (stereo not shown) [TDBB, 3-methyl-4-[4,5,6,7-tetrabromo-2-(dimethylamino)benzimidazole-1-yl]butanoic acid]
[1]
  IC50: 2.17 ± 0.06 µM
  Ki: 1.23 ± 0.03 µM
[2]
  IC50: 1.51 ± 0.04 µM
  Ki: 0.647 ± 0.014 µM

## Clc1c(Cl)c(Cl)c2[nH]cnc2c1Cl [TCI, 4,5,6,7-tetrachlorobenzimidazole]
[1]
  IC50: 1.9 ± 0.07 µM
  Ki: 1.07 ± 0.04 µM
[2]
  IC50: 9.7 ± 0.3 µM
  Ki: 4.15 ± 0.1 µM

## Brc1c(Br)c(Br)c2[nH]nnc2c1Br [TBB, 4,5,6,7-Tetrabromo-2-azabenzimidazole, reference compound]
[1]
  IC50: 1.74 ± 0.05 µM
  Ki: 0.983 ± 0.03 µM

## NCCNc1nc2c(I)c(I)c(I)c(I)c2[nH]1 [TI-2Am, 4,5,6,7-tetraiodobenzimidazole-2-amine-ethylamine]
[1]
  IC50: 0.23 ± 0.01 µM
  Ki: 0.13 ± 0.005 µM
[2]
  IC50: 0.05 ± 0.002 µM
  Ki: 0.021 ± 0.001 µM
  inhibition of CK2 stronger than that of Rio1 (fold): ca. sixfold stronger

## CN(C)c1nc2c(I)c(I)c(I)c(I)c2n1C [TIdiMe, 2-dimethylamino-1-metyl-4,5,6,7-tetraiodobenzimidazole]
[1]
  IC50: 0.24 ± 0.008 µM
  Ki: 0.135 ± 0.005 µM
[2]
  IC50: 0.2 ± 0.006 µM
  Ki: 0.085 ± 0.003 µM

## CN(C)c1nc2c(Br)c(Br)c(Br)c(Br)c2n1C [1Me-DMAT, 4,5,6,7-tetrabromo-N,N,1-trimethylbenzimidazole-2-amine]
[1]
  IC50: 0.61 ± 0.02 µM
[2]
  IC50: 0.39 ± 0.012 µM
  Ki: 0.167 µM
  inhibition of CK2 stronger than that of Rio1 (fold): twofold stronger

## Cn1c(SCC(=O)O)nc2c(Br)c(Br)c(Br)c(Br)c21 [TBTS, [(4,5,6,7-tetrabromo-N,N,1-trimethylbenzimidazole-2-yl)sulfanyl]acetic acid]
[1]
  Ki: 0.39 ± 0.011 µM
[2]
  IC50: 0.6 ± 0.03 µM
  Ki: 0.257 ± 0.009 µM

## O=C(O)c1ccc2c(c1)nc(Nc1cccc(Cl)c1)c1ccncc12 [CX-4945, Silmitasertib, reference compound]
[1]
  IC50: 0.37 ± 0.011 µM
  Ki: 0.209 ± 0.008 µM

## Cc1nc2c(I)c(I)c(I)c(I)c2[nH]1 [K92, 4,5,6,7-tetraiodo-2-methylbenzimidazole]
[1]
  IC50: 0.19 ± 0.011 µM
  Ki: 0.1 ± 0.004 µM
[2]
  IC50: 0.066 ± 0.003 µM
  Ki: 0.025 ± 0.001 µM
  inhibition of CK2 stronger than that of Rio1 (fold): fourfold stronger
